The values that follow come from US8822446B2, “Pyrrolopyridine inhibitors of kinases” (AbbVie Inc., priority 2010, dated 2014).

The assay deals with T1, Cdc7 (BEV coexpressed huCDC7/DBF4) (Homo sapiens, UniProt O00311).
T1 construct: made in house; host or cells: baculovirus expression vector (BEV) co-expression
T1 sequence (O00311 whole entry): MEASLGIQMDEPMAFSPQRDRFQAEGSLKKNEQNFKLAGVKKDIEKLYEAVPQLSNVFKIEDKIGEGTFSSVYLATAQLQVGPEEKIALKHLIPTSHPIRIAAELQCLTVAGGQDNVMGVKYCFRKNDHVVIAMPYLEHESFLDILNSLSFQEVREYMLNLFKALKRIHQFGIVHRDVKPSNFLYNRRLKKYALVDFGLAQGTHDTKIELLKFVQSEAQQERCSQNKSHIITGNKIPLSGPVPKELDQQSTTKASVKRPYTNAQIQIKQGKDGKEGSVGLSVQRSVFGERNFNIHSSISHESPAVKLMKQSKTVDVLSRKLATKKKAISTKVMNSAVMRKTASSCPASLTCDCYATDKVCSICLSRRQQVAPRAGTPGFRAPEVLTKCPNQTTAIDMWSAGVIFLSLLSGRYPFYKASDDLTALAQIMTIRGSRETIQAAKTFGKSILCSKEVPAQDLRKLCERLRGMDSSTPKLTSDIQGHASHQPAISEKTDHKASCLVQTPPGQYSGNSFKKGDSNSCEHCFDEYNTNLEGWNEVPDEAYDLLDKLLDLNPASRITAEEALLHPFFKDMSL
T1 sequence (Q9UBU7 whole entry partner): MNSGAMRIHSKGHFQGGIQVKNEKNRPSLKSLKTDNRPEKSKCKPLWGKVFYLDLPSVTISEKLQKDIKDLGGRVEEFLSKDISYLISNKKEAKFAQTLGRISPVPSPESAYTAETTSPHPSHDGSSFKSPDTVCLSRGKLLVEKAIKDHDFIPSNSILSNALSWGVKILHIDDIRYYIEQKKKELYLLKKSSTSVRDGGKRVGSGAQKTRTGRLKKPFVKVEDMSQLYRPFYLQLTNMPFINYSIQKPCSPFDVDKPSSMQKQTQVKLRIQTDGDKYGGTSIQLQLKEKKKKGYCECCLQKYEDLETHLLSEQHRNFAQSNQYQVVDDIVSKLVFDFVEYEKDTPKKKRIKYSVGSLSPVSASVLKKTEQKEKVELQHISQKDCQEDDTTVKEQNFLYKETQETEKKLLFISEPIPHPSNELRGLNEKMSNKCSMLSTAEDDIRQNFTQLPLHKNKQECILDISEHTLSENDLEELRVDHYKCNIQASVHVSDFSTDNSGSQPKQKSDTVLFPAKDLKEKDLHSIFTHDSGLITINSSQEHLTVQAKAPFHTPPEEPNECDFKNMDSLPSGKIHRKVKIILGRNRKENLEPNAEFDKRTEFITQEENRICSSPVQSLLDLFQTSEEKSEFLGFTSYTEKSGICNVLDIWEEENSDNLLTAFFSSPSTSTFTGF
The assay is described as follows: Cdc7 enzyme inhibition assay ([33P]-ATP, biotinylated peptide substrate, FlashPlate). The class given is biochemical. The following applies: Ki generated from IC50 assuming ATP-competitive inhibition; 1 μM ATP, apparent ATP Km 0.7 μM; 1 hr reaction. The protocol: This example describes the assays that may be used to identify compounds having kinase activity.
Cdc7 (BEV coexpressed huCDC7/DBF4) is prepared internally. Cdc7 assays are conducted as follows with final concentrations as listed. In 384-well v-bottom polypropylene plates, 6 μL compound (2% DMSO), is mixed with 6 μL of Cdc7 (2 ug/mL), and Jerini peptide substrate A-A11 (biotin-C6linker-[…]) (2 μM), followed by immediate initiation with 6 μL […] (1 μM, 20 mCi/μmol) using a reaction buffer comprising 25 mM HEPES, pH 7.5, 1 mM DTT, 10 mM MgCl2, 100 μM, Na3VO4, 0.075 mg/ml Triton X-100. Reactions are quenched after 1 hr by the addition of 90 μL stop buffer (50 mM EDTA, 2M NaCl).
Table 1 depicts enzyme inhibition data (Ki) for exemplary compounds.
Consider `O=c1cc(-c2c[nH]c3ncccc23)nc(NC2CCCCC2)[nH]1` [Example 1, 2-(cyclohexylamino)-6-(1H-pyrrolo[2,3-b]pyridin-3-yl)pyrimidin-4(3H)-one], for which the Ki is less than 10 nM.
The same measure for `O=c1cc(-c2c[nH]c3ncccc23)nc(NCc2ccccc2)[nH]1` [Example 2, 2-(benzylamino)-6-(1H-pyrrolo[2,3-b]pyridin-3-yl)pyrimidin-4(3H)-one]: less than 10 nM; for `O=c1cc(-c2c[nH]c3ncccc23)nc(Nc2ccccc2)[nH]1` [Example 3, 2-anilino-6-(1H-pyrrolo[2,3-b]pyridin-3-yl)pyrimidin-4(3H)-one]: less than 10 nM.
As for `N[C@H]1CC[C@H](Nc2nc(-c3c[nH]c4ncccc34)cc(=O)[nH]2)CC1` [Example 4, 2-[(trans-4-aminocyclohexyl)amino]-6-(1H-pyrrolo[2,3-b]pyridin-3-yl)pyrimidin-4(3H)-one], the figure is less than 10 nM.
As for `O=c1cc(-c2c[nH]c3ncccc23)nc(NCc2cc(F)cc(F)c2)[nH]1` [Example 5, 2-[(3,5-difluorobenzyl)amino]-6-(1H-pyrrolo[2,3-b]pyridin-3-yl)pyrimidin-4(3H)-one], the Ki was less than 10 nM.
The same measure for `O=c1cc(-c2c[nH]c3ncccc23)nc(NC2CCNCC2)[nH]1` [Example 6, 2-(piperidin-4-ylamino)-6-(1H-pyrrolo[2,3-b]pyridin-3-yl)pyrimidin-4(3H)-one]: less than 10 nM; for `O=c1cc(-c2c[nH]c3ncccc23)nc(N2CCC(O)CC2)[nH]1` [Example 7, 2-(4-hydroxypiperidin-1-yl)-6-(1H-pyrrolo[2,3-b]pyridin-3-yl)pyrimidin-4(3H)-one]: less than 10 nM; for `C[C@H](Nc1nc(-c2c[nH]c3ncccc23)cc(=O)[nH]1)c1ccccc1` [Example 8, 2-{[(1S)-1-phenylethyl]amino}-6-(1H-pyrrolo[2,3-b]pyridin-3-yl)pyrimidin-4(3H)-one]: less than 10 nM.
Regarding `O=c1cc(-c2c[nH]c3ncccc23)nc(NC2CCOCC2)[nH]1` [Example 9, 6-(1H-pyrrolo[2,3-b]pyridin-3-yl)-2-(tetrahydro-2H-pyran-4-ylamino)pyrimidin-4(3H)-one], the Ki is less than 10 nM.
As for `O=c1cc(-c2c[nH]c3ncccc23)nc(NCC2CCCO2)[nH]1` (centres unmarked) [Example 10, 6-(1H-pyrrolo[2,3-b]pyridin-3-yl)-2-[(tetrahydrofuran-2-ylmethyl)amino]pyrimidin-4(3H)-one], the figure is less than 10 nM; as for `CN(c1nc(-c2c[nH]c3ncccc23)cc(=O)[nH]1)C1CCCCC1` [Example 11, 2-[cyclohexyl(methyl)amino]-6-(1H-pyrrolo[2,3-b]pyridin-3-yl)pyrimidin-4(3H)-one], less than 10 nM.
As for `C[C@@H](Nc1nc(-c2c[nH]c3ncccc23)cc(=O)[nH]1)c1ccccc1` [Example 12, 2-{[(1R)-1-phenylethyl]amino}-6-(1H-pyrrolo[2,3-b]pyridin-3-yl)pyrimidin-4(3H)-one], the figure is less than 10 nM; as for `NC1CCCCC1Nc1nc(-c2c[nH]c3ncccc23)cc(=O)[nH]1` (centres unmarked) [Example 13, 2-[(2-aminocyclohexyl)amino]-6-(1H-pyrrolo[2,3-b]pyridin-3-yl)pyrimidin-4(3H)-one], less than 10 nM.
As for `O=c1cc(-c2c[nH]c3ncccc23)nc(NC2CCCCCC2)[nH]1` [Example 14, 2-(cycloheptylamino)-6-(1H-pyrrolo[2,3-b]pyridin-3-yl)pyrimidin-4(3H)-one], the figure is less than 10 nM; as for `O=c1cc(-c2c[nH]c3ncccc23)nc(N2CCSCC2)[nH]1` [Example 15, 6-(1H-pyrrolo[2,3-b]pyridin-3-yl)-2-(thiomorpholin-4-yl)pyrimidin-4(3H)-one], less than 10 nM.
As for `CNCCNc1nc(-c2c[nH]c3ncccc23)cc(=O)[nH]1` [Example 16, 2-{[2-(methylamino)ethyl]amino}-6-(1H-pyrrolo[2,3-b]pyridin-3-yl)pyrimidin-4(3H)-one], the Ki is less than 10 nM.
As for `COCCN(CCOC)c1nc(-c2c[nH]c3ncccc23)cc(=O)[nH]1` [Example 17, 2-[bis(2-methoxyethyl)amino]-6-(1H-pyrrolo[2,3-b]pyridin-3-yl)pyrimidin-4(3H)-one], the figure is less than 10 nM; as for `COCCNc1nc(-c2c[nH]c3ncccc23)cc(=O)[nH]1` [Example 18, 2-[(2-methoxyethyl)amino]-6-(1H-pyrrolo[2,3-b]pyridin-3-yl)pyrimidin-4(3H)-one], less than 10 nM; as for `O=c1cc(-c2c[nH]c3ncccc23)nc(NCCO)[nH]1` [Example 19, 2-[(2-hydroxyethyl)amino]-6-(1H-pyrrolo[2,3-b]pyridin-3-yl)pyrimidin-4(3H)-one], less than 10 nM.
Consider `O=c1cc(-c2c[nH]c3ncccc23)nc(NCc2ccccc2C(F)(F)F)[nH]1` [Example 20, 6-(1H-pyrrolo[2,3-b]pyridin-3-yl)-2-{[2-(trifluoromethyl)benzyl]amino}pyrimidin-4(3H)-one], for which the Ki is less than 10 nM.
As for `O=c1cc(-c2c[nH]c3ncccc23)nc(N2CCC(CO)CC2)[nH]1` [Example 21, 2-[4-(hydroxymethyl)piperidin-1-yl]-6-(1H-pyrrolo[2,3-b]pyridin-3-yl)pyrimidin-4(3H)-one], the figure is less than 10 nM.
As for `O=c1cc(-c2c[nH]c3ncccc23)nc(NCCCN2CCOCC2)[nH]1` [Example 22, 2-{[3-(morpholin-4-yl)propyl]amino}-6-(1H-pyrrolo[2,3-b]pyridin-3-yl)pyrimidin-4(3H)-one], the figure is less than 10 nM; as for `O=c1cc(-c2c[nH]c3ncccc23)nc(NCc2cccc(O)c2)[nH]1` [Example 23, 2-[(3-hydroxybenzyl)amino]-6-(1H-pyrrolo[2,3-b]pyridin-3-yl)pyrimidin-4(3H)-one], less than 10 nM.
As for `O=c1cc(-c2c[nH]c3ncccc23)nc(N2CCOCC2)[nH]1` [Example 24, 2-(morpholin-4-yl)-6-(1H-pyrrolo[2,3-b]pyridin-3-yl)pyrimidin-4(3H)-one], the figure is less than 10 nM; as for `O=C(O)C1CCN(c2nc(-c3c[nH]c4ncccc34)cc(=O)[nH]2)CC1` [Example 25, 1-[6-oxo-4-(1H-pyrrolo[2,3-b]pyridin-3-yl)-1,6-dihydropyrimidin-2-yl]piperidine-4-carboxylic acid], less than 10 nM.
As to `O=c1cc(-c2c[nH]c3ncccc23)nc(NC2CCCC2)[nH]1` [Example 26, 2-(cyclopentylamino)-6-(1H-pyrrolo[2,3-b]pyridin-3-yl)pyrimidin-4(3H)-one], the Ki is less than 10 nM.
As for `COC1CCN(c2nc(-c3c[nH]c4ncccc34)cc(=O)[nH]2)CC1` [Example 27, 2-(4-methoxypiperidin-1-yl)-6-(1H-pyrrolo[2,3-b]pyridin-3-yl)pyrimidin-4(3H)-one], the Ki is less than 10 nM.
In the case of `O=c1cc(-c2c[nH]c3ncccc23)nc(NC2CCCCC2O)[nH]1` (centres unmarked) [Example 28, 2-[(2-hydroxycyclohexyl)amino]-6-(1H-pyrrolo[2,3-b]pyridin-3-yl)pyrimidin-4(3H)-one], the Ki was less than 10 nM.
As for `CN1CCC(Nc2nc(-c3c[nH]c4ncccc34)cc(=O)[nH]2)CC1` [Example 29, 2-[(1-methylpiperidin-4-yl)amino]-6-(1H-pyrrolo[2,3-b]pyridin-3-yl)pyrimidin-4(3H)-one], the figure is less than 10 nM.
As for `O=c1cc(-c2c[nH]c3ncccc23)nc(NCCCn2ccnc2)[nH]1` [Example 30, 2-{[3-(1H-imidazol-1-yl)propyl]amino}-6-(1H-pyrrolo[2,3-b]pyridin-3-yl)pyrimidin-4(3H)-one], the figure is less than 10 nM.
As for `NCCOCCOCCNc1nc(-c2c[nH]c3ncccc23)cc(=O)[nH]1` [Example 31, 2-({2-[2-(2-aminoethoxy)ethoxy]ethyl}amino)-6-(1H-pyrrolo[2,3-b]pyridin-3-yl)pyrimidin-4(3H)-one], the figure is less than 10 nM.
In the case of `O=c1cc(-c2c[nH]c3ncccc23)nc(-c2ccccc2)[nH]1` [Example 32, 2-phenyl-6-(1H-pyrrolo[2,3-b]pyridin-3-yl)pyrimidin-4(3H)-one], the Ki was less than 10 nM.
The same measure for `Cc1ccccc1-c1nc(-c2c[nH]c3ncccc23)cc(=O)[nH]1` [Example 33, 2-(2-methylphenyl)-6-(1H-pyrrolo[2,3-b]pyridin-3-yl)pyrimidin-4(3H)-one]: less than 10 nM; for `O=c1cc(-c2c[nH]c3ncccc23)cc(-c2ccccc2)[nH]1` [Example 34, 6-phenyl-4-(1H-pyrrolo[2,3-b]pyridin-3-yl)pyridin-2(1H)-one]: less than 10 nM.
The same measure for `O=c1cc(-c2c[nH]c3ncccc23)cc(-c2cccc(OC(F)(F)F)c2)[nH]1` [Example 35, 4-(1H-pyrrolo[2,3-b]pyridin-3-yl)-6-[3-(trifluoromethoxy)phenyl]pyridin-2(1H)-one]: less than 10 nM; for `O=c1cc(-c2c[nH]c3ncccc23)cc(-c2cccc(C(F)(F)F)c2)[nH]1` [Example 36, 4-(1H-pyrrolo[2,3-b]pyridin-3-yl)-6-[3-(trifluoromethyl)phenyl]pyridin-2(1H)-one]: less than 10 nM; for `Cc1cccc(-c2cc(-c3c[nH]c4ncccc34)cc(=O)[nH]2)c1C` [Example 37, 6-(2,3-dimethylphenyl)-4-(1H-pyrrolo[2,3-b]pyridin-3-yl)pyridin-2(1H)-one]: less than 10 nM.
`Cc1ccccc1-c1cc(-c2c[nH]c3ncccc23)cc(=O)[nH]1` [Example 38, 6-(2-methylphenyl)-4-(1H-pyrrolo[2,3-b]pyridin-3-yl)pyridin-2(1H)-one]: the Ki is less than 10 nM.
